# Test results published in the supplement of paper PMC11003180.
# Experiments:
# Assay in all cases: drug sensitivity score (DSS) from 5-dose viability curve (DSS (area-based score, 0 = no response)); higher = more sensitive (stronger viability inhibition); extreme values may be limits of the assay
# [1] = system: MDCK wild-type - doxycycline; conditions: doxycycline: none; 72 h
# How it was run: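 Parental MDCK cells, grown without doxycycline, were seeded at 2000 cells/well into 384-well plates pre-spotted with an oncology library of 528 drugs at five doses (1-10,000 nM). After 72 h at 37 °C, CellTiter-Glo luminescence was read. Viability was scaled per plate between vehicle and positive controls, and drug sensitivity scores were derived from dose-response curve fits in the Breeze pipeline.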
# [2] = system: MDCK p60AmotL2-inducible + doxycycline (p60AmotL2 expressing); conditions: doxycycline: 10 ng/mL; 72 h
# How it was run: (§1)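 Parental MDCK cells and MDCK cells with a doxycycline-inducible transgene were both grown with doxycycline at 10 ng/mL in the medium before plating, then dispensed at 2000 cells/well into 384-well plates pre-spotted with an oncology library of 528 drugs at five doses (1-10,000 nM). After 72 h at 37 °C, CellTiter-Glo luminescence was recorded and scaled on each plate between vehicle and positive controls. This scaled signal served as the viability readout, and drug sensitivity scores were derived from dose-response curve fits in the Breeze pipeline.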
# [3] = system: MDCK wild-type + doxycycline; conditions: doxycycline: 10 ng/mL; 72 h
# How it was run: as §1
Structure (SMILES),drug sensitivity score [1],drug sensitivity score [2],drug sensitivity score [3]
Oc1ccc2c(c1)CC[C@H](c1ccccc1)[C@@H]2c1ccc(OCCN2CCCC2)cc1 [Lasofoxifene],0,0,0
Nc1cc(COc2c(Cl)cc(C[C@H](N)C(=O)O)cc2Cl)c2oc(-c3ccccc3)nc2c1 [JPH203],0,0,0
CC1(C)CC[C@]2(NC(=O)C(C)(F)F)CC[C@]3(C)[C@H](C(=O)C=C4[C@@]5(C)C=C(C#N)C(=O)C(C)(C)[C@@H]5CC[C@]43C)[C@@H]2C1 [Omaveloxolone],17,16.7,16.3
O=C(c1ccc(C(=O)N2CCC(N3CCCC3)CC2)c(Nc2ccccc2)c1)N1CCC(N2CCCC2)CC1 [UNC1215],0,0,0
O=C(NCc1ccncc1)C12CC3CC(C1)CC(c1ccc(Cl)cc1)(C3)C2,2.4,6.4,4.3
C[C@@H]1COC(Nc2ccc3ncnc(Nc4ccc(OCc5nccs5)c(Cl)c4)c3c2)=N1 [Varlitinib],1.6,7.2,3.6
C[C@]1(c2nc3c(C(N)=O)cccc3[nH]2)CCCN1 [Veliparib],0,0,0
Cc1cc(OCc2nnc(SC3CCCC3)n2-c2cccnc2)ccc1-c1ccc(S(C)(=O)=O)cc1 [NMS-873],12.8,14.7,13.5
Nc1cc(F)ccc1NC(=O)c1ccc(CNC(=O)/C=C/c2cccnc2)cc1 [Tucidinostat],0.8,2.6,2.4
Nc1nccc(-c2c(-c3ccc(F)cc3)ncn2C2CCCCC2)n1,0.7,2.3,0.5
CN(c1ncccc1CNc1nc(Nc2ccc3c(c2)CC(=O)N3)ncc1C(F)(F)F)S(C)(=O)=O,4.4,6,5.8
Cn1ncnc1[C@H]1c2n[nH]c(=O)c3cc(F)cc(c23)N[C@@H]1c1ccc(F)cc1 [Talazoparib],0,2.3,0
Cn1cnc2c(F)c(Nc3ccc(Br)cc3F)c(C(=O)NOCCO)cc21 [Binimetinib],0,5.3,0
COc1cc(Br)c(Nc2nc(-c3c(C)nc4ncccn34)cs2)c(Br)c1 [PTC-209],9.6,13.8,11.4
C/C=C1\NC(=O)[C@H]2CSSCC/C=C/[C@H](CC(=O)N[C@H](C(C)C)C(=O)N2)OC(=O)[C@H](C(C)C)NC1=O [Romidepsin],18.1,24.9,19.7
O=c1sn(-c2cccc3ccccc23)c(=O)n1Cc1ccccc1 [Tideglusib],0,0,0
CN(C)Cc1c(C(=O)NCCOc2ccc(C(=O)NO)cc2)oc2ccccc12 [Abexinostat],15.6,18.8,17.5
COc1cc(C(=O)O)ccc1NC(=O)[C@@H]1N[C@@H](CC(C)(C)C)[C@](C#N)(c2ccc(Cl)cc2F)[C@H]1c1cccc(Cl)c1F [Idasanutlin],8.4,16.2,12.6
Nc1nc(Nc2ccc3c(c2)CC[C@@H](N2CCCC2)CC3)nn1-c1cc2c(nn1)-c1ccccc1CCC2 [BGB324],5.1,5.8,5
O=C(O)CCCCC(CCSCc1ccccc1)SCc1ccccc1 (stereo unspecified) [CPI-613],0,0,0
CCNC(=O)CCC/C=C\C[C@@H]1[C@@H](/C=C/[C@@H](O)CCc2ccccc2)[C@H](O)C[C@@H]1O [Bimatoprost],0,0,0
CC(C)(C#N)c1cc(Cn2cncn2)cc(C(C)(C)C#N)c1 [Anastrozole],0,0,0
C=CC(=O)Nc1cccc(Nc2nc(Nc3ccc(N4CCN(C(C)=O)CC4)cc3OC)ncc2C(F)(F)F)c1 [Rociletinib],6.9,10.4,6.7
N#Cc1ccnc(N2C(=O)CC[C@H]2C(=O)N(c2cncc(F)c2)[C@H](C(=O)NC2CC(F)(F)C2)c2ccccc2Cl)c1 [Ivosidenib],0,0,0

Structure (SMILES),drug sensitivity score [1],drug sensitivity score [2],drug sensitivity score [3]
COc1cc(OC2CCN(C)CC2)ccc1Nc1ncc2c(n1)n(C1CCCC1)c(=O)n2C [AZ 3146],5.1,6.3,5.1
CC[C@@H]1C(=O)OC[C@@H]1Cc1cncn1C [Pilocarpine],0,0,0
Cn1c(=O)n(-c2ccc(C(C)(C)C#N)cc2)c2c3cc(-c4cnc5ccccc5c4)ccc3ncc21 [Dactolisib],9.2,17.7,10.9
CCNc1nc(Nc2cc(F)c(C(=O)N3CCOCC3)cc2OC)ncc1C(F)(F)F [GNE-7915],0,0,0
CC(C)(C)Cn1c(N)nc2ccc(-c3[nH]c(C(C)(C)C)nc3-c3ccc(F)cc3)nc21 [Ralimetinib],0,4.4,3.5
COc1c(C)cnc(Cn2cnc3c(Cl)nc(N)nc32)c1C [BIIB021],17.4,20.6,19.6
CC(C)(C)c1cc(NC(=O)Nc2ccc(-c3cn4c(n3)sc3cc(OCCN5CCOCC5)ccc34)cc2)no1 [Quizartinib],3.3,3.9,3
Cc1ccc(-n2nc(C(C)(C)C)cc2NC(=O)Nc2ccc(OCCN3CCOCC3)c3ccccc23)cc1 [Doramapimod],0,0,0
CS(=O)(=O)N1CCN(Cc2cc3nc(-c4cccc5[nH]ncc45)nc(N4CCOCC4)c3s2)CC1 [Pictilisib],6.9,14.4,8.4
Cc1nc2cccc(N)c2c(=O)n1C1CCC(=O)NC1=O (stereo unspecified) [CC122],0,0,0
Nc1nc2cc(-c3ccc4ncc(C(=O)N5CCOCC5)n4c3)ccc2o1 [Serabelisib],0,1.3,0.1
COc1cc(N2CCN(C)CC2)ccc1Nc1nccc(-c2cn(C)c3cnccc23)n1 [AZ191],0,2.2,2.5
CCCCCCCCc1ccc(CCC(N)(CO)CO)cc1 [Fingolimod],6.7,6.7,8.7
C=CCc1cccc(/C=N/NC(=O)CN2CCN(Cc3ccccc3)CC2)c1O [PAC-1],2.6,4,4.2
CC(C)C(=O)Nc1ccc([N+](=O)[O-])c(C(F)(F)F)c1 [Flutamide],0,0,0
CS(=O)(=O)c1ccc(-c2cnc(N)c(C(=O)Nc3ccccc3)n2)cc1 [VE-821],0,0,0
Cc1ccc(NC(=O)c2ccc(CN3CC[C@H](N(C)C)C3)c(C(F)(F)F)c2)cc1Nc1nccc(-c2cncnc2)n1 [Bafetinib],0,0,0
C[C@@H]1CCN(C(=O)CC#N)C[C@@H]1N(C)c1ncnc2[nH]ccc12 [Tofacitinib],0,0,0
CC1CCC(n2c3cnccc3c3cnc(Nc4ccc5c(n4)CCN(C(=O)CO)C5)nc32)CC1 (stereo unspecified) [AMG-925],0,1.3,0
CCNC(=O)c1noc(-c2cc(C(C)C)c(O)cc2O)c1-c1ccc(CN2CCOCC2)cc1 [Luminespib],15.8,20.7,18.4
O=C(O)c1ccc(CN2CCC(CN[C@@H]3C[C@H]3c3ccccc3)CC2)cc1,0,0,0
CC(O)c1cc(C(=O)N[C@@H](C)Cn2ccc(-c3ccc(C#N)c(Cl)c3)n2)n[nH]1 (stereo partly specified) [ODM-201],0,0,0
O=C(c1cc(Cc2n[nH]c(=O)c3ccccc23)ccc1F)N1CCN(C(=O)C2CC2)CC1 [Olaparib],0,0.2,0
